Values joined by “and” are separate entries in the source; they are usually repeats but may differ in a detail not shown here. Equal entries are not always repeated. Where two headings read alike, the source gives them in different places.
Tests used:
Escherichia coli = test: Growth curves with polymyxin B and bumble bee, yellowjacket or baldfaced hornet venom; assay type: cell-based; conditions: for optical density, AVERAGE: AVERAGE line; for optical density: single replicates
Description: The activity of hymenoptera venom other than HBV was also determined for bumblee venom, yellow jacket venom and bald faced hornet venom, as shown below in Tables 8, 9

E. coli #G1880E = assay type: cell-based
[1] = 6 hours after innoculation, YJ 5 ug/ml, BF 5 ug/ml, Pol B 3.125 U/ml alone, Pol B 5 U/ml in the combinations
[2] = 6 hours after innoculation, doses of what is present: Pol B 3.125 Units/ml, BB Venom 5 ug/ml
[3] = 8 hours after innoculation, YJ 5 ug/ml, BF 5 ug/ml, Pol B 3.125 U/ml alone, Pol B 5 U/ml in the combinations
[4] = 8 hours after innoculation, doses of what is present: Pol B 3.125 Units/ml, BB Venom 5 ug/ml
[5] = 8 hours after innoculation, doses of what is present: Pol B 6.25 Units/ml, BB Venom 20 ug/ml
[6] = 12 hours after innoculation, YJ 5 ug/ml, BF 5 ug/ml, Pol B 3.125 U/ml alone, Pol B 5 U/ml in the combinations
[7] = 12 hours after innoculation, doses of what is present: Pol B 3.125 Units/ml, BB Venom 5 ug/ml
[8] = 12 hours after innoculation, doses of what is present: Pol B 6.25 Units/ml, BB Venom 20 ug/ml

Polymyxin B
optical density, AVERAGE (Escherichia coli; [1]): 1.07
optical density (Escherichia coli; [1]): 1.07
optical density, AVERAGE (Escherichia coli; [2]): 1.03
optical density (Escherichia coli; [2]): 1.03
optical density, AVERAGE (Escherichia coli; 6 hours after innoculation, doses of what is present: Pol B 6.25 Units/ml, BB Venom 20 ug/ml): .827
optical density, AVERAGE (Escherichia coli; [3]): 1.08
optical density (Escherichia coli; [3]): 1.08
optical density, AVERAGE (Escherichia coli; [4]): 1.04
optical density (Escherichia coli; [4]): 1.04
optical density, AVERAGE (Escherichia coli; [5]): .960
optical density (Escherichia coli; [5]): .960 and .950 and .970
optical density, AVERAGE (Escherichia coli; [6]): 1.14
optical density (Escherichia coli; [6]): 1.14
optical density, AVERAGE (Escherichia coli; [7]): 1.13
optical density (Escherichia coli; [7]): 1.12 and 1.14 (2×)
optical density, AVERAGE (Escherichia coli; [8]): 1.03
optical density (Escherichia coli; [8]): 1.03 (2×) and 1.04
MEAN A660 (E. coli #G1880E; POLY B = 1.5, HBV = 0, T0): 0.012
MEAN A660 (E. coli #G1880E; POLY B = 1.5, HBV = 0, T2): 0.040
MEAN A660 (E. coli #G1880E; POLY B = 1.5, HBV = 0, T4): 0.411
MEAN A660 (E. coli #G1880E; POLY B = 1.5, HBV = 0, T6): 0.984
MEAN A660 (E. coli #G1880E; POLY B = 1.5, HBV = 0, T8): 1.020
MEAN A660 (E. coli #G1880E; POLY B = 1.5, HBV = 0, T12): 1.075
MEAN A660 (E. coli #G1880E; POLY B = 1.5, HBV = 0, T24): 1.200
MEAN A660 (E. coli #G1880E; POLY B = 3, HBV = 0, T0): 0.012
MEAN A660 (E. coli #G1880E; POLY B = 3, HBV = 0, T2): 0.040
MEAN A660 (E. coli #G1880E; POLY B = 3, HBV = 0, T4): 0.138
MEAN A660 (E. coli #G1880E; POLY B = 3, HBV = 0, T6): 0.642
MEAN A660 (E. coli #G1880E; POLY B = 3, HBV = 0, T8): 0.943
MEAN A660 (E. coli #G1880E; POLY B = 3, HBV = 0, T12): 0.985
MEAN A660 (E. coli #G1880E; POLY B = 3, HBV = 0, T24): 1.116
MEAN A660 (E. coli #G1880E; POLY B = 6, HBV = 0, T0): 0.012
MEAN A660 (E. coli #G1880E; POLY B = 6, HBV = 0, T2): 0.040
MEAN A660 (E. coli #G1880E; POLY B = 6, HBV = 0, T4): 0.022
MEAN A660 (E. coli #G1880E; POLY B = 6, HBV = 0, T6): 0.014
MEAN A660 (E. coli #G1880E; POLY B = 6, HBV = 0, T8): 0.011
MEAN A660 (E. coli #G1880E; POLY B = 6, HBV = 0, T12): 0.109
MEAN A660 (E. coli #G1880E; POLY B = 6, HBV = 0, T24): 0.975
MEAN A660 (E. coli #G1880E; POLY B = 12, HBV = 0, T0): 0.012
MEAN A660 (E. coli #G1880E; POLY B = 12, HBV = 0, T2): 0.040
MEAN A660 (E. coli #G1880E; POLY B = 12, HBV = 0, T4): 0.018
MEAN A660 (E. coli #G1880E; POLY B = 12, HBV = 0, T6): 0.011
MEAN A660 (E. coli #G1880E; POLY B = 12, HBV = 0, T8): 0.009
MEAN A660 (E. coli #G1880E; POLY B = 12, HBV = 0, T12): 0.075
MEAN A660 (E. coli #G1880E; POLY B = 12, HBV = 0, T24): 0.472
MEAN A660 (E. coli #G1880E; POLY B = 625, HBV = 0, T0): 0.006
MEAN A660 (E. coli #G1880E; POLY B = 625, HBV = 0, T2): 0.074
MEAN A660 (E. coli #G1880E; POLY B = 625, HBV = 0, T4): 0.330
MEAN A660 (E. coli #G1880E; POLY B = 625, HBV = 0, T6): 0.766
MEAN A660 (E. coli #G1880E; POLY B = 625, HBV = 0, T8): 1.048
MEAN A660 (E. coli #G1880E; POLY B = 625, HBV = 0, T12): 1.238
MEAN A660 (E. coli #G1880E; POLY B = 625, HBV = 0, T24): 1.401
MEAN A660 (E. coli #G1880E; POLY B = 1250, HBV = 0, T0): 0.006
MEAN A660 (E. coli #G1880E; POLY B = 1250, HBV = 0, T2): 0.074
MEAN A660 (E. coli #G1880E; POLY B = 1250, HBV = 0, T4): 0.159
MEAN A660 (E. coli #G1880E; POLY B = 1250, HBV = 0, T6): 0.172
MEAN A660 (E. coli #G1880E; POLY B = 1250, HBV = 0, T8): 0.259
MEAN A660 (E. coli #G1880E; POLY B = 1250, HBV = 0, T12): 0.778
MEAN A660 (E. coli #G1880E; POLY B = 1250, HBV = 0, T24): 1.362
MEAN A660 (E. coli #G1880E; POLY B = 2500, HBV = 0, T0): 0.006
MEAN A660 (E. coli #G1880E; POLY B = 2500, HBV = 0, T2): 0.074
MEAN A660 (E. coli #G1880E; POLY B = 2500, HBV = 0, T4): 0.123
MEAN A660 (E. coli #G1880E; POLY B = 2500, HBV = 0, T6): 0.109
MEAN A660 (E. coli #G1880E; POLY B = 2500, HBV = 0, T8): 0.167
MEAN A660 (E. coli #G1880E; POLY B = 2500, HBV = 0, T12): 0.075
MEAN A660 (E. coli #G1880E; POLY B = 2500, HBV = 0, T24): 1.037
